How the values were obtained:
[1] = tested on: IMR90 cells, non-transformed fibroblasts; assay: cell growth (crystal violet) and cell death (PI/Hoechst) in IMR90 cells; type: cell-based
Procedure: (§1) Commercially available MDA-MB-231, MDA-MB-468, MCF7 and A375M, IMR90 (IMR-90 (ATCC® CCL-186TH) cells were grown at 37° C. and 5% CO2 in DMEM medium (Dulbecco's Modified Eagle Medium, 4.5 g/I glucose; 30 mg/I L-Glutamine (Gibco)) supplemented with 10% foetal bovine serum, 100 U/ml penicillin and 100 μg/ml streptomycin.
Knock-out mice of the EB1 target kinases MNK1 and MNK2 are viable (Ueda et al 2004; PMID: 15254222). […] Cell growth was measured by crystal violet assay. Cell death was determined by Propidium Iodid (PI)/Hoechst staining and the ratio of dead cell (PI positive) among all analyzed cells (Hoechst) was determined. Cis-platin treatment was included as positive control. […] Minimal side effects for patients are therefore predictable.

MNK1/2 [2] = assay: radiometric kinase assay (33PanQinase Activity Assay), IC50; type: biochemical
Procedure: (§2) The kinase activity of the compound was measured by a radiometric kinase assay (^33PanQinase® Activity Assay) carried out by Proqinase (www.proqinase.com).
(§3) The assays were carried out in 96-well FlashPlates™ by PerkinElmer (Boston, Mass., USA) with a reaction volume of 50 μl. The reaction cocktail was pipetted in 4 steps: (1) 20 μl buffer, (2) 5 μl ATP solution (in H2O), (3) 5 μl compound (in 10% DMSO) and (4) 20 μl enzyme/substrate mixture. Lastly, the cocktail contained 70 mM HEPES-NaOH pH 7.5, 3 mM MgCl2, 3 mM MnCl2, 3 μM sodium orthovanadate, 1.2 mM DTT, 50 μg/ml PEG20000, ATP (1 μM for MNK1 and 0.3 μM for MNK2), [γ-^33P]-ATP (approx. […] per well), protein kinase (variable amounts depending on the batch) and substrate (2 μg/50 μl).
(§4) Reaction cocktails were incubated at 30° C. for 60 minutes. The reaction was stopped with 50 μl of 2% H3PO4 (v/v), the plates were sucked, they were washed twice with 200 μl of 0.9% NaCl (w/v) and the incorporation of ^33Pi (MicroBeta microplate scintillation counter, Wallac) was determined. All assays were performed with a Beckman Coulter/SAGIAN™ system.
(§5) The residual activity (in %) for each well of a particular plate was calculated using the following formula (wherein high control is the kinase activity in absence of an inhibitor and low control is the radioactivity value of the substrate in absence of a kinase).

MNK1/2 [3] = target: T1, MNK1/2; assay: as above; type: biochemical; conditions: MNK1/2, isoform not stated; read-out: enzymatic IC50
T1 construct: rows headed: enzymatic IC50
Procedure: as §2, §3, §4, §5

[4] = tested on: eIF4E phosphorylation in MCF10 cells; assay: inhibition of eIF4E phosphorylation by Western Blot in MCF10 cells; type: cell-based; conditions: Homo sapiens; immortalised non-tumour breast cells (MCF10)
Procedure: (§6) MCF10A cells (also commercially available) were grown in DMEM/F-12 medium (Dulbecco's Modified Eagle Medium: 3.125 g/L D-Glucosa, 365 mg/L L-Glutamine, Nutrient Mixture F-12 (Gibco)) supplemented with 10% FBS, 100 U/ml penicillin, 100 μg/ml streptomycin, 1% L-Glutamine (Cambrex), 10 ng/ml choleric toxin (Sigma-Aldrich), 0.005 mg/ml insulin (Sigma), 100 ng/ml hydrocortisone (Sigma) and 20 ng/ml EGF (Epidermal growth factor, Sigma).
(§7) Inhibition of eIF4E phosphorylation was quantified by Western Blot. Cells were seeded in 60 mm plates (700,000 cells for 24 h, 500,000 cells for 48 h and 300,000 cells for 72 h).
(§8) After 24 h, the treatments were added. The stocks of compounds were prepared in […] at a concentration 200 times more concentrated than the treatment concentration. Thus, in all cases, the final concentration of DMSO in the medium was 0.5%.
After incubation, proteins were removed and Western Blot was performed. […] The samples were centrifuged at 15,000 g and the supernatant was quantified by the Bradford method. […] Selectivity against MNK was analysed with ERK, p-ERK, MNK1, p-MNK1, 4EBP1 and p-4EBP1 antibodies.

MNK2 = target: T2, MNK2 (Homo sapiens, UniProt Q9HBH9); assay: radiometric kinase assay (33PanQinase Activity Assay), MNK2; type: biochemical; conditions: after treatment with 10 μM compound; ATP 0.3 μM; read-out: residual activity of MNK2
T2 construct: purchased Proqinase
Procedure: The assays were carried out in 96-well FlashPlates™ by PerkinElmer (Boston, Mass., USA) with a reaction volume of 50 μl. The reaction cocktail was pipetted in 4 steps: (1) 20 μl buffer, (2) 5 μl ATP solution (in H2O), (3) 5 μl compound (in 10% DMSO) and (4) 20 μl enzyme/substrate mixture. […]
Reaction cocktails were incubated at 30° C. for 60 minutes. The reaction was stopped with 50 μl of 2% H3PO4 (v/v), the plates were sucked, they were washed twice with 200 μl of 0.9% NaCl (w/v) and the incorporation of ^33Pi (MicroBeta microplate scintillation counter, Wallac) was determined. […]
To screen compounds, the residual activity of both kinases was analysed after treatment with 10 μM of the compounds.

MDA-MB-231 cells = assay: FACS analysis of cell cycle and subG1, MDA-MB-231; type: cell-based; conditions: MDA-MB-231, higher concentrations
Procedure: To determine how cell growth is affected at higher concentrations of EB1, a FACS analysis was performed to monitor the state of the cell cycle and the percentage of cells in subG1 as an indicator of cell death. […] Equivalent results have been described for the MNK1/2 inhibitor BAY 11433296 (FIG. 4).

[5] = tested on: eIF4E phosphorylation in MDA-MB-231 cells; assay: inhibition of eIF4E phosphorylation by Western Blot in MDA-MB-231 cells; type: cell-based, human
Procedure: as §1, §7, §8
After incubation, proteins were removed and Western Blot was performed. On ice, the plates were washed with PBS and the cells were lysed with 60 μl lysis buffer (50 mM Tris, 200 mM NaCl, 5 mM EDTA, 0.1% Triton 100×, pH 7.5 supplemented with protease inhibitors (EDTA-free Protease Inhibitor Cocktail Set III, Calbiochem) and phosphatase inhibitors (Phosphatase Inhibitor Cocktail Set II, Calbiochem)). The samples were centrifuged at 15,000 g and the supernatant was quantified by the Bradford method. The samples were all diluted to the same concentration with a lysis buffer and loading buffer (Laemmli buffer) and denatured for 5 minutes at 95° C. The proteins were separated on a 12% […] gel (20 μg were loaded per well) and transferred to a PDVF (Polyvinylidene fluoride) membrane. β-Actin antibodies, abbreviated as “actin” in the figures (Calbiochem), eIF4E (anti-rabbit, Cell signalling), and phosphorylated-eIF4E (S209) (anti-rabbit, Cell signalling) in 5% BSA in TBST were used to study the activity of the compounds. Selectivity against MNK was analysed with ERK, p-ERK, MNK1, p-MNK1, 4EBP1 and p-4EBP1 antibodies.

MCF10 cells = assay: in vitro proliferation assay (crystal violet), MCF10; type: cell-based; conditions: non-tumour cells MCF10, concentrations necessary to inhibit MNK activity
Procedure: as §6
In 96-well plates, 5000 cells were seeded for each condition. After 24 h, the cells were treated with the compound at the corresponding concentration. The stocks of compounds were prepared in 100% DMSO at a concentration 200 times more concentrated than the treatment concentration. Thus, in all cases, the final concentration of DMSO in the medium is 0.5%. After incubation, the medium was removed and the cells were fixed with 4% PFA (100 μl per well) for 30 minutes. Two washes with PBS were performed.
Cells were stained with crystal violet (0.5% in EtOH): 100 μl were added to each well, stirred for 15 minutes, washed with water and left to dry. The content of each well was dissolved in 200 μl of 15% AcOH and the absorbance thereof was measured at 595 nm.

T2 sequence (Q9HBH9 whole entry): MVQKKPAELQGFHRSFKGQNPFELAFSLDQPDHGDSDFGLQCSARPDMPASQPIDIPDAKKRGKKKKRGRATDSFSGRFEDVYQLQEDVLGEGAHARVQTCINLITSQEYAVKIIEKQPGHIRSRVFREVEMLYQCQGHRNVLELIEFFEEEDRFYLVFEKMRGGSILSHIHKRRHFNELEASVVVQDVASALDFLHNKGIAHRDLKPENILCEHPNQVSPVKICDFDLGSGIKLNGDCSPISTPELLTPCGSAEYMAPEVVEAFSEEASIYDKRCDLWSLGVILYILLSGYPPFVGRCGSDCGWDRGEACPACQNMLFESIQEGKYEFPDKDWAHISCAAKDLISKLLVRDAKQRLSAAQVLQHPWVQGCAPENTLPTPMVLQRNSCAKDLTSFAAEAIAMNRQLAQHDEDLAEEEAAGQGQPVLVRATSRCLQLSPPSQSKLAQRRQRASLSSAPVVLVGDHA

Nc1n[nH]c2nc(-c3ccccc3)cc(-c3ccccc3)c12 [EB1, 4,6-diphenyl-1H-pyrazolo[3,4-b]pyridin-3-amine]
cell death ([1]; IMR90, PI/Hoechst staining): does not induce cell death | cell growth arrest ([1]; IMR90, crystal violet): does not cause significant cell growth arrest | mode of MNK1/2 inhibition (MNK1/2 [2]): non-ATP competitive | IC50 (MNK1/2 [3]): 700 nM | EC50 [4]: 700 nM | remaining activity at 10 µM (MNK2): 52% | cells in the G1 phase of the cell cycle (MDA-MB-231 cells): increase of cells could be observed in the G1 phase | EC50 ([5]; Homo sapiens, MDA-MB-231 triple-negative breast cancer cells, read-out: in vitro EC50, inhibition of eIF4E phosphorylation): ~1500 nM | concentration at which eIF4E phosphorylation is significantly reduced ([5]; MDA-MB-231): greater than 2.5 μM | concentration giving almost complete inhibition of eIF4E phosphorylation ([5]; MDA-MB-231): ≥ 2.5 µM | duration of the effect on eIF4E phosphorylation ([5]; MDA-MB-231): at least 72 h | reversal of the increased eIF4E phosphorylation caused by doxorubicin ([5]; MDA-MB-231, 5 μM EB1 with doxorubicin): can be reversed | effect on components of the signalling pathway (p-MNK, ERK, 4E-BP1) ([5]; MDA-MB-231, Western Blot): does not affect any of the components of the signalling pathway | effect on cell growth (MCF10 cells): does not affect the cell growth

Source: US20220257571A1, “INHIBITOR OF MAP KINASE INTERACTING SERINE/THREONINE KINASE 1 (MNK1) AND MAP KINASE INTERACTING SERINE/THREONINE KINASE 2 (MNK2), CANCER THERAPY AND THERAPEUTIC COMBINATIONS” (FUNPACIÓ HOSPITAL UNIVERSITARI VALL D'HEBRON - INSTITUT DE …, priority 2019, published 2022)
